Data reported in US20240132511A1, “TREATMENTS OF PRADER-WILLI SYNDROME” (Neuren Pharmaceuticals Limited, priority 2021, published 2024).

SMILES | melting point [°C]
C[C@@]12CCCN1C(=O)C1(CCCCC1)NC2=O [Cyclic cyclohexyl-G-2-MeP, (8aS)-Methyl-spiro[cyclohexane-1,3(4H)-tetrahydropyrrolo[1,2-a]pyrazine]-1,4(2H)-dione] | 174 to 177
C[C@@]12CCCN1C(=O)C1(CCCC1)NC2=O [Cyclic cyclopentyl-G-2-MeP, (8aS)-Methyl-spiro[cyclopentane-1,3(4H)-tetrahydropyrrolo[1,2-a]pyrazine]-1,4(2H)-dione] | 160 to 163
